In US20160368898A1, “2-PYRIDYLOXY-4-METHYL OREXIN RECEPTOR ANTAGONISTS” (MERCK SHARP & DOHME CORP., priority 2013, published 2016):

Tests used:
[1] = molecular target: T1, human orexin-2 receptor (hOX2R) (Homo sapiens, UniProt O43614); experiment: FLIPR Ca2+ Flux Assay, CHO cells expressing the human orexin-2 receptor; assay type: cell-based; details: agonist 70 pM Ala-6,12 human orexin-A
T1 construct: expressed in transfected cells; host or cells: CHO cells (grown under G418)
T1 sequence (O43614 1-444): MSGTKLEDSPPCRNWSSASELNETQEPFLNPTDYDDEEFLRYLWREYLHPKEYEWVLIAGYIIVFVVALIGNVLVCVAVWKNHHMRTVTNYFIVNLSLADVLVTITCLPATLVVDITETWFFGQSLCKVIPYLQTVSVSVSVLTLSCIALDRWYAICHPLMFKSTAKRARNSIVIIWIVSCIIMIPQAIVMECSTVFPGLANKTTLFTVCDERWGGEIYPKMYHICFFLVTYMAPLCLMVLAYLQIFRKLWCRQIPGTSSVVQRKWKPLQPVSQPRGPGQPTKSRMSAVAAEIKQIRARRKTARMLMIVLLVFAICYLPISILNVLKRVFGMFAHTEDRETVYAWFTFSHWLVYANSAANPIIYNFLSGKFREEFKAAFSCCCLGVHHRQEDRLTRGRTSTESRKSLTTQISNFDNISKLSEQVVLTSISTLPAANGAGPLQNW
Protocol: The utility of the compounds in accordance with the present invention as orexin receptor OX1R and/or OX2R antagonists may be readily determined without undue experimentation by methodology well known in the art, including the “FLIPR Ca^2+ Flux Assay” (Okumura et al., Biochem. Biophys. Res. Comm. 280:976-981, 2001). In a typical experiment the OX1 and OX2 receptor antagonistic activity of the compounds of the present invention was determined in accordance with the following experimental method. For intracellular calcium measurements, Chinese hamster ovary (CHO) cells expressing the rat orexin-1 receptor or the human orexin-2 receptor, are grown in Iscove's modified DMEM containing 2 mM L-glutamine, […], 1% hypoxanthine-thymidine supplement, 100 U/ml penicillin, 100 μg/ml streptomycin and 10% heat-inactivated fetal calf serum (FCS). The cells are seeded at 20,000 cells/well into Becton-Dickinson black 384-well clear bottom sterile plates coated with poly-D-lysine. All reagents were from GIBCO-Invitrogen Corp. The seeded plates are incubated overnight at 37° C. and 5% CO2. Ala-6,12 human orexin-A as the agonist is prepared as a 1 mM stock solution in 1% bovine serum albumin (BSA) and diluted in assay buffer (HBSS containing 20 mM HEPES, 0.1% BSA and 2.5 mM probenecid, pH7.4) for use in the assay at a final concentration of 70 pM. Test compounds are prepared as 10 mM stock solution in DMSO, then diluted in 384-well plates, first in DMSO, then assay buffer. On the day of the assay, cells are washed 3 times with 100 μl assay buffer and then incubated for 60 min (37° C., 5% CO2) in 60 μl assay buffer containing 1 μM Fluo-4AM ester, 0.02% pluronic acid, and 1% BSA. The dye loading solution is then aspirated and cells are washed 3 times with 100 μl assay buffer. 30 μl of that same buffer is left in each well. Within the Fluorescent Imaging Plate Reader (FLIPR, Molecular Devices), test compounds are added to the plate in a volume of 25 μl, incubated for 5 min and finally 25 μl of agonist is added. Fluorescence is measured for each well at 1 second intervals for 5 minutes and the height of each fluorescence peak is compared to the height of the fluorescence peak induced by 70 pM Ala-6,12 orexin-A with buffer in place of antagonist. For each antagonist, IC50 value (the concentration of compound needed to inhibit 50% of the agonist response) is determined. Alternatively, compound potency can be assessed by a radioligand binding assay (described in Bergman et. al. Bioorg. Med. Chem. Lett. 2008, 18, 1425-1430) in which the inhibition constant (Ki) is determined in membranes prepared from CHO cells expressing either the OX1 or OX2 receptor. The intrinsic orexin receptor antagonist activity of a compound which may be used in the present invention may be determined by these assays.

[2] = molecular target: T2, hOX1R (Homo sapiens, UniProt O43613); experiment: FLIPR Ca2+ Flux Assay, CHO cells expressing the orexin-1 receptor; assay type: cell-based; details: agonist 70 pM Ala-6,12 human orexin-A
T2 construct: expressed in transfected cells; host or cells: CHO cells (grown under G418)
T2 sequence (O43613 1-425): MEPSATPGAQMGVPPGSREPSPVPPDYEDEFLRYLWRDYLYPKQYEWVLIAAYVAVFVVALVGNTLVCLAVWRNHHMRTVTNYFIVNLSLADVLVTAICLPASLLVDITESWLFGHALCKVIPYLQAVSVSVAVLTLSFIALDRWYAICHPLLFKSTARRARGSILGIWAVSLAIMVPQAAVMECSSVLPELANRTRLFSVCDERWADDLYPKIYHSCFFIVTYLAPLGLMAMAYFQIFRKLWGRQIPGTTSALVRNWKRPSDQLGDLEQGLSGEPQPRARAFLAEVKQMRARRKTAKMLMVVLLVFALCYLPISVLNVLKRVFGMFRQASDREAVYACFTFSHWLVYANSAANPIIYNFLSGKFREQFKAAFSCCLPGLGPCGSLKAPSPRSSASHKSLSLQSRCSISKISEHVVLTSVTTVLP

IC50 [1]: 17 nM
IC50 [2]: 791 nM
SMILES: Cc1ccnc(O[C@@H]2CC[C@@H](C)N(C(=O)c3sccc3-c3ncccn3)C2)c1 [Example 22, 2-[2-({(2R,5R)-2-methyl-5-[(4-methylpyridin-2-yl)oxy]piperidin-1-yl}carbonyl)thiophen-3-yl]pyrimidine]
